In US8889378B2, “Cytochrome C synthesis inhibitors” (priority 2006, dated 2014):

Assays:
Format in all cases: cell-based
[1] = system: system I cytochrome c biogenesis; assay: Metalloprotoporphyrin IX addition, E. coli ΔccmΔhemA with pRGK333 (system I), pRGK332, pHPEX2 and 8 μM heme; settings: metalloporphyrin 8, 12.5 or 25 μM with 8 μM heme
Description: (§1) Overnight cultures of an E. coli Δccm strain (or E. coli ΔccmΔhemA) harboring either pRGK333 (system I) or pRGK348 (system II-chuA), pRGK332 (cytochrome c4:6×His), and pHPEX2 (Varnado and Goodwin, 2004) were diluted into fresh LB broth (containing the appropriate antibiotics and 8 μM hemin for the E. coli ΔccmΔhemA strain) and incubated with aeration at 37° C. until the OD600 was approximately 0.5. The mid-log phase cultures were divided into 5 mL aliquots to which IPTG (1 mM) and a metalloprotoporphyrin IX (Zn (II), Sn (IV), Co (III), or Mn (III); 0 μM to 25 μM) were added. Arabinose (0.2%) was added after one hour and incubation continued for an additional three hours. Cells were harvested and soluble protein was extracted using B-PER (Feissner et al., 2006). Cytochrome c4:6×His was purified from 300 μg of total protein and 20 μL was subjected to SDS-PAGE and transferred to nitrocellulose. Prior to heme stain and c4 immunoblot, the nitrocellulose blots were screened for fluorescence on an LAS-1000plus Luminescent Image Analyzer CCD camera system (Fujifilm; Tokyo, Japan).
(§2) Heme stains were performed as described (Feissner et al., 2003) using SuperSignal Femto chemiluminescent substrate (Pierce). Heme stain quantitation used LOLITA II (Low Light Test Array; raytestUSA; Wilmington, N.C.) for standardization of light intensity detection on an LAS1000plus Luminescent Image Analyzer CCD camera system. For Western blotting, extracts were first separated by 12% or 15% SDS-PAGE and electroblotted onto Hybond-C nitrocellulose membranes (Amersham). Protein A peroxidase (Sigma-Aldrich) was used as the secondary label. Detection used the SuperSignal West Femto ECL detection system (Pierce). Chemiluminescence from heme stains and Western blots were detected using an LAS-1000plus Luminescent Image Analyzer CCD camera system (Fujifilm). Protein concentrations were determined using the BCA assay (Pierce) using BSA as a standard. The reduced (10 mM sodium dithionite) and oxidized (10 mM ammonia persulphate) absorption spectra were obtained as previously described (Goldman et al., 1996) using Ni^2+ affinity-purified holocytochrome c4:His. Protein concentrations were determined with the BCA assay kit (Pierce) using BSA as a standard.
The chemical properties of iron may not be uniquely critical for its attachment to apocytochrome c during cytochromes c biogenesis. To test whether any of the cytochromes c biogenesis systems can incorporate other metal porphyrins, four metalloporphyrins were chosen to screen for incorporation into the into the CXXCH motif of a c-type cytochrome: ZnPPIX, SnPPIX, MnPPIX, and CoPPIX. These four metalloporphyrins were tested to determine whether heme can be replaced by other metalloporphyrins in the c-type cytochrome (c4:6×His) reporter. Cultures of E. coli ΔccmΔhemA containing pRGK333 (system I), pRGK332 (c4:6×His), and pHPEX2 were grown overnight in 300 μM ALA and subcultured into fresh LB medium containing 8 μM heme and grown to an OD600 of 0.5. IPTG and metalloporphyrin (8 μM, 12.5 μM, or 25 μM) were then added and growth continued for one hour. Arabinose was added to 0.2% to induce the synthesis of the c4:6×His and growth continued for three more hours before cells were harvested. […] As expected, heme was detected on c4:6×His when either 8 μM or 25 μM heme alone was added (FIG. 15 lanes 1 and 2, respectively).

[2] = system: system I cytochrome c biogenesis; assay: Metalloprotoporphyrin IX addition, E. coli Δccm with pRGK333 (system I), pRGK332 and pHPEX2; settings: for level of heme on c4:6×His: system I, up to 100 μM
Description: as §1, with “The mid-log phase cultures were divided into 5 mL aliquots to which IPTG (1 mM) and a metalloprotoporphyrin IX (Zn (II), Sn (IV), Co (III), or Mn (III); 0 μM to 25 μM) were added.” left out
as §2
ZnPPIX (and SnPPIX), when present with 8 μM heme, may compete with heme for ChuA-dependent transport into the cell. Using an E. coli Δccm strain (RK103) that has endogenous heme production, it was tested whether ZnPPIX (and SnPPIX) caused a reduction in holocytochrome c4 levels detectable by heme stain. When E. coli Δccm with pRGK333 (system I), pRGK332, and pHPEX2 were treated with ZnPPIX, a decrease in holocytochrome c4:6×His was detected as the concentration of ZnPPIX was increased (FIG. 16A left panel, lanes 1-5).
The three other metal protoporphyrins, SnPPIX, MnPPIX, and CoPPIX, were also tested in the E. coli Δccm background with system I or II. […]

[3] = system: system II cytochrome c biogenesis (H. pylori CcsBA); assay: Metalloprotoporphyrin IX addition, E. coli Δccm with pRGK348 (system II-chuA) and pRGK332; settings: for level of heme on c4:6×His: system II, up to 100 μM
Description: as §1, with “The mid-log phase cultures were divided into 5 mL aliquots to which IPTG (1 mM) and a metalloprotoporphyrin IX (Zn (II), Sn (IV), Co (III), or Mn (III); 0 μM to 25 μM) were added.” left out
as §2, with “Protein A peroxidase (Sigma-Aldrich) was used as the secondary label. Detection used the SuperSignal West Femto ECL detection system (Pierce).” left out, “The reduced (10 mM sodium dithionite) and oxidized (10 mM ammonia persulphate) absorption spectra were obtained as previously described (Goldman et al., 1996) using Ni^2+ affinity-purified holocytochrome c4:His.” left out
ZnPPIX (and SnPPIX), when present with 8 μM heme, may compete with heme for ChuA-dependent transport into the cell. […] When E. coli Δccm with pRGK333 (system I), pRGK332, and pHPEX2 were treated with ZnPPIX, a decrease in holocytochrome c4:6×His was detected as the concentration of ZnPPIX was increased (FIG. 16A left panel, lanes 1-5). […]

C=Cc1c(C)c2cc3[nH]c(cc4nc(cc5nc(cc1[nH]2)C(C)=C5CCC(=O)[O-])C(CCC(=O)[O-])=C4C)c(C)c3C=C.[Co+2] [CoPPIX, cobalt (III) protoporphyrin IX]
effect on the level of detectable heme on c4:6×His (holocytochrome c4) [1]: neither CoPPIX nor MnPPIX had any affect
level of heme on c4:6×His [2]: no decrease
level of heme on c4:6×His [3]: no decrease

C=CC1=C(C)c2cc3[n-]c(cc4[n-]c(cc5nc(cc1n2)C(C)=C5C=C)c(C)c4CCC(=O)[O-])c(CCC(=O)[O-])c3C.[H+].[H+].[Mn+2] [MnPPIX, manganese (III) protoporphyrin IX]
effect on the level of detectable heme on c4:6×His (holocytochrome c4) [1]: neither CoPPIX nor MnPPIX had any affect
level of heme on c4:6×His [2]: no decrease
level of heme on c4:6×His [3]: no decrease

C=Cc1c2[n-]c(c1C)/C=c1\[n-]/c(c(C)c1C=C)=C\c1[n-]c(c(CCC(=O)O)c1C)C=c1[n-]/c(c(C)c1CCC(=O)O)=C\2.[Sn+4] [SnPPIX, tin (IV) protoporphyrin IX]
effect on the level of detectable heme on c4:6×His (holocytochrome c4) [1]: reduced the level of detectable heme
IC50 ([2]; holocytochrome c4:6×His, heme stain, read-out: concentration required for 50% inhibition of system I): ~65 µM
IC50 ([3]; holocytochrome c4:6×His, heme stain, read-out: concentration required for 50% inhibition of system II): ~18 µM
